# Test results from PMC9029360, “Cyclooxygenase-Inhibiting Platinum(IV) Prodrugs with Potent Anticancer Activity” (Pharmaceutics, 2022).
# Where two headings read alike, the source gives them in different places.
# Experiments:
# [1] = test system: SJ-G2 glioblastoma; conditions: MTT, 72 h, ref [2] Macias et al., Eur. J. Chem. 2015; cited from earlier work
# [2] = test system: ADDP cell line; experiment: Cellular platinum accumulation by ICP-MS, ADDP; format: cell-based
# [3] = test system: MIA pancreas; conditions: MTT, 72 h, ref [2] Macias et al., Eur. J. Chem. 2015; cited from earlier work
# [4] = test system: HT29 colon cancer cell line; conditions: MTT, 72 h, ref [2] Macias et al., Eur. J. Chem. 2015; cited from earlier work
# [5] = test system: A2780 (ovarian) and ADDP (cisplatin-resistant ovarian) cancer cell lines; experiment: Cellular platinum accumulation by ICP-MS; format: cell-based; conditions: 4 h
# [6] = test system: H460 lung; conditions: MTT, 72 h, ref [2] Macias et al., Eur. J. Chem. 2015; cited from earlier work
# [7] = test system: MCF-7 breast; conditions: MTT, 72 h, ref [2] Macias et al., Eur. J. Chem. 2015; cited from earlier work
# [8] = test system: cisplatin-resistant ADDP ovarian (subclone of A2780 cell line); conditions: MTT, 72 h, ref [2] Macias et al., Eur. J. Chem. 2015; cited from earlier work
# [9] = test system: cisplatin-resistant ADDP ovarian (subclone of A2780 cell line); experiment: In vitro cytotoxicity MTT assay, cisplatin-resistant ADDP ovarian; format: cell-based
# [10] = test system: A431 skin; conditions: MTT, 72 h, ref [2] Macias et al., Eur. J. Chem. 2015; cited from earlier work
# [11] = test system: BE2-C neuroblastoma; conditions: MTT, 72 h, ref [2] Macias et al., Eur. J. Chem. 2015; cited from earlier work
# [12] = test system: MCF10A breast cell line (non-tumour derived); conditions: MTT, 72 h, ref [2] Macias et al., Eur. J. Chem. 2015; cited from earlier work
# [13] = test system: U87 glioblastoma; conditions: MTT, 72 h, ref [2] Macias et al., Eur. J. Chem. 2015; cited from earlier work
# [14] = test system: A2780 ovarian; conditions: MTT, 72 h, ref [2] Macias et al., Eur. J. Chem. 2015; cited from earlier work
# [15] = test system: Du145 prostate cancer cell line; conditions: MTT, 72 h, ref [2] Macias et al., Eur. J. Chem. 2015; cited from earlier work
# [16] = test system: BE2-C neuroblastoma; experiment: In vitro cytotoxicity MTT assay, BE2-C neuroblastoma; format: cell-based; conditions: Homo sapiens, BE(2)-C, 72 h drug exposure, n = 3
# [17] = test system: H460 lung; experiment: In vitro cytotoxicity MTT assay, H460 lung; format: cell-based; conditions: Homo sapiens, NCI-H460, 72 h drug exposure, n = 3
# [18] = test system: U87 glioblastoma; experiment: In vitro cytotoxicity MTT assay, U87 glioblastoma; format: cell-based; conditions: 72 h drug exposure, n = 3
# [19] = test system: A2780 ovarian; experiment: In vitro cytotoxicity MTT assay, A2780 ovarian; format: cell-based; conditions: Homo sapiens, 72 h drug exposure, n = 3
# [20] = target: T1, human COX-2 (Homo sapiens, UniProt P35354)
# T1 sequence (P35354 18-604): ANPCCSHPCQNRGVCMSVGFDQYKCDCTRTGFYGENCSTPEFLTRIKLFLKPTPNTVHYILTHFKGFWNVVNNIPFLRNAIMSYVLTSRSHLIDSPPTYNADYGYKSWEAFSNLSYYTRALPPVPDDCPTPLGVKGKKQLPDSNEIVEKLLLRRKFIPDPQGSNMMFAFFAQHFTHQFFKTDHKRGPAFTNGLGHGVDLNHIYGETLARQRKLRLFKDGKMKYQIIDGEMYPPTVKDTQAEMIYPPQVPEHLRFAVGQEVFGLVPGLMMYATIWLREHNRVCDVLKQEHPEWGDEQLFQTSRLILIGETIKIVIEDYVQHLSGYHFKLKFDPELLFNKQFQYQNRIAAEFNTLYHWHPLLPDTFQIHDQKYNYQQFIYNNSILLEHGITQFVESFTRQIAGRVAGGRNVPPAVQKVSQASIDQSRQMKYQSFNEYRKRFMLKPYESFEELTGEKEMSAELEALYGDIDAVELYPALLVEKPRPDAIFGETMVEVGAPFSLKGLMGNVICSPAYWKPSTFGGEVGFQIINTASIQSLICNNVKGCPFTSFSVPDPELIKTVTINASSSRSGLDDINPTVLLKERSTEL
# Procedure: (§1) The preparation of standards and samples and the completion of the assay were carried out following the manufacturer’s protocol. As described below, the completion of the assay required three main steps: the preparation of standards, the COX reaction and EIA.
# (§2) The preparation of standards involved serial dilution of the prostaglandin (PG)-screening ELISA standard with ELISA buffer.
# (§3) All tubes were incubated for 10 min at 37 °C. To initiate the reaction, arachidonic acid (10 µL) was added to each tube. This was incubated for 30 s at 37 °C before stannous chloride (30 µL) was added to stop enzyme catalysis. The tubes were removed from the water bath and vortexed, then incubated for five minutes at room temperature.
# (§4) For EIA, ELISA buffer (100 µL) was added to non-specific binding (NSB) wells and ELISA buffer (50 µL) was added to maximum binding (B0) wells; 50 µL from each PG screening standard was added to the standard wells in duplicate. A background sample (50 µL) and COX 100% initial activity samples (50 µL) were added to the wells in duplicate. Each inhibitor sample (50 µL) was added to the wells in triplicate. PG screening acetylcholinesterase (AChE) tracer (50 µL) was added to all wells except for the total activity and blank wells. PG screening ELISA antiserum (50 µL) was added to each well except for the total activity, NSB and blank wells. The plate was covered with plastic film and incubated for 18 h at room temperature on an orbital shaker. The wells were emptied and rinsed with wash buffer five times. Ellman’s reagent (200 µL) was added to each well, followed by AChE tracer (5 µL) in the total activity well. The plate was covered with plastic film and left to develop in the dark using an orbital shaker at room temperature for one hour. The absorbance was recorded at 405 nm using a plate reader.
# [21] = test system: MCF10A breast cell line (non-tumour derived); experiment: In vitro cytotoxicity MTT assay, non-tumour MCF10A breast; format: cell-based; conditions: Homo sapiens, MCF-10A, MCF10A (non-cancerous), 72 h drug exposure, n = 3
# [22] = test system: HT29 colon cancer cell line; experiment: In vitro cytotoxicity MTT assay, HT29 colon; format: cell-based; conditions: Homo sapiens, HT-29, 72 h drug exposure, n = 3
# [23] = test system: MIA pancreas; experiment: In vitro cytotoxicity MTT assay, MIA pancreas; format: cell-based; conditions: 72 h drug exposure, n = 3
# [24] = test system: MCF-7 breast; experiment: In vitro cytotoxicity MTT assay, MCF-7 breast; format: cell-based; conditions: Homo sapiens, MCF7, 72 h drug exposure, n = 3
# [25] = test system: Du145 prostate cancer cell line; experiment: In vitro cytotoxicity MTT assay, Du145 prostate; format: cell-based; conditions: Homo sapiens, DU-145, 72 h drug exposure, n = 3
# [26] = test system: A431 skin; experiment: In vitro cytotoxicity MTT assay, A431 skin; format: cell-based; conditions: Homo sapiens, A-431, 72 h drug exposure, n = 3
# [27] = target: T1, human COX-2; experiment: biochemical; conditions: read-out: COX-2 inhibition
# Procedure: as §1, §2, §3, §4
# [28] = test system: SJ-G2 glioblastoma; experiment: In vitro cytotoxicity MTT assay, SJ-G2 glioblastoma; format: cell-based; conditions: 72 h drug exposure, n = 3
compound,measurement,setting,value
"N.N.[Cl][Pt][Cl] [Cisplatin, cisplatin]",GI50,[1],0.4 µM
same,"uptake level, fold lower than PHENSS(IV)",[2],~ two-fold
same,GI50,[3],7.5 µM
same,GI50,[4],11.3 µM
same,cellular platinum uptake (rank in words),[5],lowest uptake
same,GI50,[6],0.9 ± 0.2 µM
same,GI50,[7],6.5 ± 0.8 µM
same,GI50,[8],28 µM
same,fold less active than PHENSS(IV) (GI50 values),[9]; ADDP cell line,~ 22 fold
same,fold decrease in activity in the cisplatin-resistant ADDP cell line compared to the A2780 cell line,[9]; ratio of GI50 values ADDP vs A2780,28 fold
same,GI50,[10],2.4 ± 0.3 µM
same,GI50,[11],1.9 ± 0.2 µM
same,GI50,[12],5.2 µM
same,GI50,[13],3.8 µM
same,GI50,[14],1 ± 0.1 µM
same,GI50,[15],1.2 ± 0.1 µM
"CC(=O)Oc1ccccc1C(=O)O [Aspirin, aspirin]",GI50,[16],> 50 µM
same,GI50,[17],> 50 µM
same,GI50,[18],> 50 µM
same,GI50,[19],> 50 µM
same,COX-2 inhibition,[20]; at 7 µM,No inhibition
same,COX-2 inhibition,[20]; at 70 µM,No inhibition
same,GI50,[21],> 50 µM
same,GI50,[22],> 50 µM
same,GI50,[23],> 50 µM
same,GI50,"[9]; Homo sapiens, A2780, ADDP (cisplatin-resistant), MTT, 72 h drug exposure, n = 3",> 50 µM
same,GI50,[24],> 50 µM
same,GI50,[25],> 50 µM
same,GI50,[26],> 50 µM
same,inhibition at 700 µM,[27],19%
same,GI50,[28],> 50 µM
